Measurements as given in publication PMC3107544 (Biochemistry, 2010).
Read-outs that look alike come from different tables or passages of the source. Marks after values point to notes of the source that are not given here.

Key:
[1] = target: T1, 5-HT2A receptor (Rattus norvegicus, UniProt P14842); type: cell-based; settings: DOI 1μM, infected RSK2+/+ cortical neurons
[2] = system: 5-HT2A receptor; type: cell-based, rat; settings: uninfected cortical neurons; DOI 1μM
[3] = target: T1, 5-HT2A receptor; assay: cell-based; settings: for EC50: pEC50 ± SEM
[4] = target: P2Y purinergic receptor; type: cell-based, RSK2+/+ mouse embryonic fibroblasts
[5] = target: P2Y purinergic receptor; type: cell-based, RSK2+/+ mouse embryonic fibroblasts; remark: listed apart in the source
[6] = target: P2Y purinergic receptor; type: cell-based, RSK2+/+ mouse embryonic fibroblasts; remark: listed apart in the source
[7] = target: P2Y purinergic receptor; type: cell-based, RSK2−/− mouse embryonic fibroblasts
[8] = target: P2Y purinergic receptor; type: cell-based, RSK2−/− mouse embryonic fibroblasts; remark: listed apart in the source
[9] = target: P2Y purinergic receptor; type: cell-based, RSK2−/− mouse embryonic fibroblasts; remark: listed apart in the source
[10] = system: P2Y purinergic receptor; assay: FLIPR Tetra P2Y-mediated Ca^2+ responses in MEFs; type: cell-based, mouse; settings: for EC50: read-out: potency (EC50)
[11] = target: 5-HT2A receptor (Mus musculus, UniProt P35363); settings: RSK2+/+ mVSMCs; 100nM
[12] = system: 5-HT2A-mediated Ca^2+ responses; assay: Growth factor attenuation of 5-HT2A-mediated Ca^2+ responses in MEFs; type: cell-based, mouse
[13] = system: RSK2; assay: Immunoprecipitation and immunoblot of RSK2 activation; type: cell-based, mouse; settings: for maximal activation of RSK2 (sum pixel intensity normalized to total RSK2): RSK2+/+ MEFs, 5 min, EGF 100ng/mL or IGF-1 10nM
[14] = target: IGF-1 R (Mus musculus, UniProt Q60751); assay: Immunoblot of IGF-1 R phosphorylation; type: cell-based; settings: RSK2+/+ MEFs; 10 nM
[15] = system: 5-HT2A-mediated Ca^2+ responses; assay: Growth factor attenuation of 5-HT2A-mediated Ca^2+ responses in mVSMCs; type: cell-based, mouse; settings: saturating 5-HT 10μM, 60 min treatment
[16] = RSK2+/+ MEFs, EGF 100ng/mL 0 min (untreated)
[17] = RSK2+/+ MEFs, EGF 100ng/mL 60 min
[18] = RSK2−/− MEFs, EGF 100ng/mL 0 min (untreated)
[19] = RSK2−/− MEFs, EGF 100ng/mL 60 min

Chain of IGF-1 R (Q60751 31-737 limits assumed): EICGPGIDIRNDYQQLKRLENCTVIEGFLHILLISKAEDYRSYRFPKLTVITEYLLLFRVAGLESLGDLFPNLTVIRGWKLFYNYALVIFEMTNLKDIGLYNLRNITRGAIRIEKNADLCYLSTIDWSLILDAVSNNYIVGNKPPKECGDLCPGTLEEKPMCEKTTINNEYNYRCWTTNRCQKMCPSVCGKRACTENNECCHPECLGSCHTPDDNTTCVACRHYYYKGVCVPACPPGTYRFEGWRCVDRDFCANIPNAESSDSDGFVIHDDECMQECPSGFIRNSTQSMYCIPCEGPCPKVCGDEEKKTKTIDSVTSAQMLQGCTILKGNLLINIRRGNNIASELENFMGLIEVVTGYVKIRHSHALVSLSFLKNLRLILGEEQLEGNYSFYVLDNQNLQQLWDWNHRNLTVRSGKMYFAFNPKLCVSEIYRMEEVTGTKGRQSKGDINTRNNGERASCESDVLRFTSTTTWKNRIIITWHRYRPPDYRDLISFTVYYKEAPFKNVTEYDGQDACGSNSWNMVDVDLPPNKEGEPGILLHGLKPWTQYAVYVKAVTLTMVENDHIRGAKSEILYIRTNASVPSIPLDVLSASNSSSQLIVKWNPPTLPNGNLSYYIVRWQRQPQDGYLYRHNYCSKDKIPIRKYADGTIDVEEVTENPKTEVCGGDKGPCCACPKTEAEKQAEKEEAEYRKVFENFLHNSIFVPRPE
Chain of IGF-1 R (Q60751 742-1373 limits assumed): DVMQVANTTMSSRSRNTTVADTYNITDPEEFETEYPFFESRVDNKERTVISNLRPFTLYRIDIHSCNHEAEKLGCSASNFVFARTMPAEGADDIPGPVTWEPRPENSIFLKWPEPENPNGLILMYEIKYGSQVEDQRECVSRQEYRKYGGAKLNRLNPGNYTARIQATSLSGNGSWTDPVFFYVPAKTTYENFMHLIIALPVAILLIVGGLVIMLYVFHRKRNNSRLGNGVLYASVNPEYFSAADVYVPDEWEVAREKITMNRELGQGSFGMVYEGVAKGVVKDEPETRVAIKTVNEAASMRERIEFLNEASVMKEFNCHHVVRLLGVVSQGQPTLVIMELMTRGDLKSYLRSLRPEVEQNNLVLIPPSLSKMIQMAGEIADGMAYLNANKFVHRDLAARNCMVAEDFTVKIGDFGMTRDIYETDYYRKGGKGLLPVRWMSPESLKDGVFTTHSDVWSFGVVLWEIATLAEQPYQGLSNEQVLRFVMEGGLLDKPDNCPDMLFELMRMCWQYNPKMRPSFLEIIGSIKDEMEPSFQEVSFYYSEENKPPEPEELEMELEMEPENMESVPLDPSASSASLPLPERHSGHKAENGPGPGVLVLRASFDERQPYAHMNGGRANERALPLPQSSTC
Chain of 5-HT2A receptor (Mus musculus, UniProt P35363) (P35363 whole entry): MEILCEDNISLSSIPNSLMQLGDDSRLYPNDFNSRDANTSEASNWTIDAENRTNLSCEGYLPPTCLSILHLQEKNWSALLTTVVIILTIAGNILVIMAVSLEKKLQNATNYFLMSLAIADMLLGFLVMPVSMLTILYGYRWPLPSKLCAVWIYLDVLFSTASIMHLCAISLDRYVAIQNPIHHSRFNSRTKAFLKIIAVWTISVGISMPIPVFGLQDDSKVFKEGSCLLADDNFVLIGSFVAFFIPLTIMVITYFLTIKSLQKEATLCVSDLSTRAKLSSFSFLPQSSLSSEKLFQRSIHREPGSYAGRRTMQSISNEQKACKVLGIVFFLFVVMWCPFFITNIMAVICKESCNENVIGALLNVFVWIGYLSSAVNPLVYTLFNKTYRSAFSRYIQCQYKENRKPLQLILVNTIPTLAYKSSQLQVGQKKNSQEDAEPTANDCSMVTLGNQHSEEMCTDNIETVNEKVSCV

COc1cc(CC(C)N)c(OC)cc1I.Cl (racemic) [DOI, (±)-2,5-dimethoxy-4-iodoamphetamine hydrochloride]
Area under curve ([1]; EGF 100ng/mL 60 min): 20.9 +/− 1.2 ^b
Area under curve ([1]; NRG-1 100ng/mL): 28.6 +/− 1.7 ^b
Area under curve ([1]; RTK ligand None): 33.7 +/− 1.3
Ca^2+ response in uninfected neurons [2]: unresponsive

COc1ccc2[nH]cc(CCN(C)C)c2c1 [5-methoxy DMT, 5-methoxy-N,N-dimethyltryptamine]
EC50 [3, 16]: 25.7 nM
EC50 [3, 17]: 67.6 nM
EC50 [3, 18]: 89.1 nM
EC50 [3, 19]: 89.1 nM
Emax ([3]; read-out: Emax± SEM, %, RSK2+/+ MEFs, EGF 100ng/mL 0 min (untreated)): 86.7%
Emax ([3]; read-out: Emax± SEM, %, RSK2+/+ MEFs, EGF 100ng/mL 60 min): 79.6%
Emax ([3]; read-out: Emax± SEM, %, RSK2−/− MEFs, EGF 100ng/mL 0 min (untreated)): 80.4%
Emax ([3]; read-out: Emax± SEM, %, RSK2−/− MEFs, EGF 100ng/mL 60 min): 79.1%

Nc1ncnc2c1ncn2[C@@H]1O[C@H](COP(=O)(O)OP(=O)(O)OP(=O)(O)O)[C@@H](O)[C@H]1O [ATP, adenosine 5'-triphosphate]
RSK2+/+ MEFs, 0 min, pEC50 ± SEM [4]: 5.16 +/− 0.05
RSK2+/+ MEFs, 30 min, pEC50 ± SEM [5]: 4.95 +/− 0.06 ^d
RSK2+/+ MEFs, 60 min, pEC50 ± SEM [6]: 4.88 +/− 0.09 ^d
RSK2−/− MEFs, 0 min, pEC50 ± SEM [7]: 5.37 +/− 0.09
RSK2−/− MEFs, 30 min, pEC50 ± SEM [8]: 5.34 +/− 0.09
RSK2−/− MEFs, 60 min, pEC50 ± SEM [9]: 5.30 +/− 0.09

Nc1ncnc2c1ncn2[C@@H]1O[C@H](COP(=O)(O)OP(=O)(O)OP(=O)(O)O)[C@@H](O)[C@H]1O [ATP]
Emax± SEM, % [10, 16]: 99.7 +/− 2.0%
Emax± SEM, % ([10]; RSK2+/+ MEFs, EGF 100ng/mL 30 min): 88.4 +/− 2.5 ^d %
Emax± SEM, % [10, 17]: 82.5 +/− 3.2 ^d %
Emax± SEM, % [10, 18]: 98.6 +/− 3.3%
Emax± SEM, % ([10]; RSK2−/− MEFs, EGF 100ng/mL 30 min): 93.4 +/− 3.2%
Emax± SEM, % [10, 19]: 100 +/− 3.5%
EC50 ([10]; RSK2+/+ MEFs, 60 min EGF treatment): 13000 nM
EC50 ([10]; RSK2+/+ MEFs, untreated): 7000 nM

COc1cccc([C@H](O)C2CCN(CCc3ccc(F)cc3)CC2)c1OC [MDL100907]
block of 5-HT-elicited Ca^2+ responses [11]: blocked

EGF: human epidermal growth factor, canonical EGFR agonist
IC50 for attenuation of 5-HT2A-mediated Ca^2+ responses ([12]; RSK2+/+ MEFs): 1.3 ng/mL
peak Ca^2+ release ([12]; RSK2+/+ MEFs, 10nM 5-HT, 100ng/mL EGF 1hr, parallel control of IGF-1 experiments): 80.7 +/− 2.3%
maximal activation of RSK2 (sum pixel intensity normalized to total RSK2) [13]: 1.25 × 10^6 +/− 0.25 × 10^6

IGF-1: insulin-like growth factor 1, activates the IGF-1 R
maximal activation of RSK2 (sum pixel intensity normalized to total RSK2) [13]: 0.546 × 10^6 +/− 0.107 × 10^6
activation of IGF-1 R (Tyr(P)1158/1162/1163) [14]: activated

TGF-α: transforming growth factor-alpha, selective and potent EGFR agonist
IC50 for attenuation of 5-HT2A-mediated Ca^2+ responses ([12]; RSK2+/+ MEFs): 4.1 ng/mL

insulin: insulin, tested for attenuation of 5-HT2A receptor signaling in MEFs
effect on 5-HT2A receptor signaling ([12]; MEFs, data not shown): no effect
activation of RSK2 ([13]; MEFs, data not shown): modest activation

B1: PDGF-BB: human platelet-derived growth factor BB, PDGFR ligand (protein, UniProt P01127 82-190, looked up)
Platelet-derived growth …: SLGSLTIAEPAMIAECKTRTEVFEISRRLIDRTNANFLVWPPCVEVQRCSGCCNNRNVQCRPTQVQLRPVQVRKIEIVRKKPIFKKATVTLEDHLACKCETVAAARPVT
peak Ca^2+ release ([15]; RSK2+/+ cells): 67.0 +/− 8.5%
peak Ca^2+ release ([15]; RSK2−/− cells): 77.9 +/− 7.6%
